In paper PMC4627230, “Identification of TAX2 peptide as a new unpredicted anti-cancer agent” (Oncotarget, 2015):

Key:
[1] = system: HUVECs; assay: Boyden chamber / Transwell migration assay; format: cell-based, human
Procedure: Figure 2 TAX2 peptide impairs endothelial cell migration and inhibits angiogenesis in vitro and ex vivo A. HUVECs were treated with TAX2 (100 μM) or scrambled peptide (Ctrl, 100 μM). CD47 was immunoprecipitated from total protein lysates using anti-CD47 (clone B6H12) and non-specific IgGs were used as a negative control. Immunocomplexes were then submitted to SDS-PAGE and immunoblotted (IB) using specific TSP-1 and CD47 antibodies. Histogram represents the quantification of co-immunoprecipitated TSP-1 relative to immunoprecipitated CD47. Results are expressed as percentage compared to control (n = 3 separate experiments, t test). B. HUVECs (1 × 10^5 per well) were grown at confluence and then cell proliferation was inhibited by incubating with 10 μg/mL mitomycin C for 2 h. Migration assays were performed for 9 h with or without TAX2 peptide (100 μM), as described in Materials and Methods. Photographs (100×) were taken every 3 h. Graph represents the quantification of the wounded area. […] Hoechst-stained migrating cells attached on outside surface of the top chamber were photographed (20× objective) and counted. Results are expressed as percentage of migrated cells as compared to control. […] After 8 h incubation, HUVEC tube-like formation was observed on an inverted microscope (40×) and quantification of network total length was done using ImageJ software. […] Data are expressed as the mean ± SE from at least 3 independent experiments, each performed in triplicate. […] The transcriptional level of TSP-1 was assessed by RT-PCR and normalized to β-actin. […] After 6 days incubation in the presence of 100 μM TAX2 or control peptide (Ctrl), images were taken with an inverted microscope (40×) and microvessel area was quantified using ImageJ software. […]
Figure 3 Anti-angiogenic properties of TAX2 are mediated by TSP-1 binding to CD36 A. Expression of CD36 in HUVECs was assessed by immunoblotting (left panel) and immunofluorescence staining (right panel, red). […] The presence of TSP-1 in immunocomplexes was quantified by densitometric analysis relative to immunoprecipitated CD36. […]

[2] = system: HUVEC; assay: HUVEC viability; format: cell-based, human
[3] = system: immobilized TSP-1 (thrombospondin from human platelets); assay: ELISA binding of biotin-labeled peptides to immobilized TSP-1; conditions: biotin-labeled peptide 10 μg/mL, 3 h, room temperature, 0.5% BSA; absorbance 450 nm; n = 3 in triplicate
Procedure: Microtiter plates (Nunc, ThermoFisher Scientific, Courtaboeuf, France) were coated overnight at 4°C with 0.5 μg TSP-1 in sodium carbonate-bicarbonate (BupH) buffer (Thermo Fisher Scientific). Plates were washed with PBS 0.1% BSA (Sigma-Aldrich) and non-specific sites were saturated during 30 min using 1% (w/v) BSA in BupH buffer. Biotin-labeled peptide (10 μg/mL, determined after dose-response assay from 0.01 to 100 μg/mL) was added in buffer containing 0.5% (w/v) BSA and incubated for 3 h at room temperature. Non-labeled peptide (0.001 to 5 mg/mL) was used as selective competitor. Plates were washed with PBS containing 0.1% (w/v) BSA and treated for 30 min with mouse anti-biotin antibody. Bound antibody was quantified using the mouse IgG Elite Vectastain ABC kit (Vector Laboratories) followed by incubation with 1-Step Turbo TMB substrate as a chromogen (ThermoFisher Scientific). The reaction was stopped with 0.5 M H2SO4 and absorbance was read at 450 nm.

CEVSQLLKGDAC (disulfide) [TAX2, CD47-derived cyclic disulfide dodecapeptide …]
inhibition of endothelial cell migration (Boyden chamber) ([1]; HUVECs, 100 μM, 12 h, EGM-2, mean of 5 in triplicate): 50% | prevention of endothelial cell migration in presence of CD36 blocking antibody ([1]; HUVECs, 100 μM, 12 h, anti-CD36 10 μg/mL, n = 3): wholly reversed | concentration of optimal inhibition of endothelial cell migration ([1]; dose-response assay, data not shown, migration format not specified): 100 µM | cytotoxic effect on HUVECs [2]: cannot be attributed to any cytotoxic effect | HUVEC viability ([2]; percent compared to control treatment, t test): not significant | binding to immobilized TSP-1 [3]: binds to immobilized TSP-1
